The IC50 is the point on the concentration scale where inhibition reaches its midpoint.

SMILES strings stand for the structures.

Consider 25 molecules from patent publication US10633389B2, “CARM1 inhibitors and uses thereof” (Epizyme, Inc., priority 2013, dated 2020).

The test system of the test is asymmetric di-methyl PABP1 in RKO cells. The experiment in a line: RKO methylation assay, In Cell Western (ICW) for asymmetric di-methyl PABP1. It is filed as cell-based. To be noted: Homo sapiens, RKO, Cellular potencies, ICW PABP1me2a. An outline of the steps: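 In-cell Western on fixed RKO cells after 48 h compound exposure: anti-asymmetric di-methyl PABP1 signal at 800 nm over DRAQ5 DNA signal at 700 nm. Percent inhibition set between DMSO wells and wells with 20 μM reference compound; IC50 curves fitted in triplicate.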

On to `CNCC(O)COc1cc(O)cc(-c2nc(NC3CCOCC3)c(C)c(-c3c(C)noc3C)n2)c1` (stereo not shown) [Example 76-1a], for which the IC50 lay in the range of 10 to 20 µM.
Molecule `CNC[C@@H](O)COc1ccc(Cl)c(-c2nc(N[C@H]3CCN(C4CC4)C[C@H]3F)c(Cl)c(-c3c(C)noc3C)n2)c1` [Example 195-3] came in with an IC50 of less than 5 µM.
For `CNC[C@H](O)COc1ccc(F)c(-c2nc(NCCC(C)(C)OC)c(C)c(-c3c(C)noc3C)n2)c1` [Example 83-3], the IC50 was less than 5 µM.
In turn, `CNC[C@@H](O)COc1ccc(Cl)c(-c2nc(N[C@H]3CO[C@H](C)C3)c(C)c(-c3c(C)noc3C)n2)c1` [Example 198-3] returned an IC50 of less than 5 µM.
In the case of `CNC[C@@H](O)COc1ccc(Cl)c(-c2nc(OC[C@H]3CCOC3)c(C)c(-c3c(C)noc3C)n2)c1` [Example 117-3], the IC50 is less than 5 µM.
The same measure for `CCO[C@@H]1CCC[C@H]1Nc1nc(-c2cc(OC[C@H](O)CNC)ccc2F)nc(-c2c(C)noc2C)c1C` [Example 191-3]: less than 5 µM.
The molecule `CCO[C@H]1CCC[C@H]1N(CC)c1nc(-c2cc(OC[C@H](O)CNC)ccc2Cl)nc(-c2c(C)noc2C)c1C` [Example 255-3] came in with an IC50 of 5 to 10 µM.
`CNCC(O)COc1cccc(-c2nc(-c3c(C)noc3C)cc(N3C[C@@H]4C[C@H]3CN4S(C)(=O)=O)n2)c1` (stereo partly shown) [Example 80-1a]: the IC50 is 10 to 20 µM.
Consider `CNCC(O)COc1cccc(-c2nc(-c3c(C)noc3C)c(C)c(N3CCN(C(=O)OC)C(C(F)F)C3)n2)c1` (stereo not shown) [Example 17-3], for which the IC50 was less than 5 µM.
For the molecule `CCN1CCC[C@H]1CNc1nc(-c2cc(OC[C@@H](O)CNC)ccc2Cl)nc(-c2c(C)noc2C)c1C` [Example 48-3], the IC50 was less than 5 µM.
The molecule `CCOC(=O)N1CCN(c2nc(-c3cccc(OCC(O)CNC)c3)nc(-c3c(C)noc3C)c2C)CC1` (stereo not shown) [Example 77-1a] came in with an IC50 of less than 5 µM.
Turning to `CNCC(O)COc1cc(Cl)cc(-c2nc(Nc3cncnc3)cc(-c3c(C)noc3C)n2)c1` (stereo not shown) [Example 9-1a], the IC50 is 5 to 10 µM.
For `CCOC(=O)N1CCOC[C@@H]1CNc1nc(-c2cc(OCC(O)CNC)ccc2Cl)nc(-c2c(C)nsc2C)c1C` (stereo partly shown) [Example 93-3], the IC50 is less than 5 µM.
`CNC[C@@H](O)COc1ccc(Cl)c(-c2nc(-c3c(C)noc3C)c(C)c(N3CCC4(CC4)C3)n2)c1` [Example 234-3] displayed an IC50 of less than 5 µM.
Molecule `CNCC(O)COc1cc(OC)cc(-c2nc(-c3cnc4cnccn34)cc(N(C)C3CCOCC3)n2)c1` (stereo not shown) [Example 492-1a] showed an IC50 of less than 5 µM.
The molecule `CNC[C@@H](O)COc1ccc(F)c(-c2nc(-c3c(C)noc3C)c(C)c(N3Cc4cnn(C)c4C3)n2)c1` [Example 223-3] came in with an IC50 of less than 5 µM.
The molecule `CNCC(O)COc1cccc(-c2nc(-c3c(C)noc3C)cc(N(C)C3CCN(C(=O)OC)CC3)n2)c1` (stereo not shown) [Example 90-1a] returned a concentration for half-maximal inhibition (IC50) of less than 5 µM.
For `CCN1CCC[C@@H]1CNc1nc(-c2cc(OC[C@@H](O)CNC)ccc2Cl)nc(-c2c(C)noc2C)c1C` [Example 77-3], the IC50 is less than 5 µM.
Turning to `CNC[C@@H](O)COc1ccc(Cl)c(-c2nc(-c3c(C)noc3C)c(C)c(N3Cc4cnc(C5CC5)nc4C3)n2)c1` [Example 259-3], the IC50 is less than 5 µM.
`CNCC(O)COc1cccc(-c2nc(N[C@@H]3CCOC3)c(C)c(-c3cnc4[nH]ccc4c3)n2)c1` (stereo partly shown) [Example 355-1a]: the IC50 lay in the range of 10 to 20 µM.
With `CNC[C@@H](O)COc1ccc(F)c(-c2nc(NC3CCN(C(=O)OC)CC3)c(C)c(-c3c(C)noc3C)n2)c1` [Example 40-3], the IC50 is less than 5 µM.
Consider `CNCC(O)COc1cc(Cl)cc(-c2nc(-c3ccncc3)c(C3CC3)c(N(C)C3CCOCC3)n2)c1` (stereo not shown) [Example 574-1a], for which the IC50 lay within 10 to 20 µM.
With `CNCC(O)COc1cc(OC)cc(-c2nc(NC3CCOCC3)c(C)c(-c3c(C)noc3C)n2)c1` (stereo not shown) [Example 75-1a], the IC50 was less than 5 µM.
The same measure for `CNCC(O)COc1cccc(-c2nc(N[C@@H]3CCOC3)c(C)c(N3C[C@H]4C[C@@H]3CN4C)n2)c1` (stereo partly shown) [Example 443-1a]: 10 to 20 µM; for `CNC[C@H](O)COc1ccc(Cl)c(-c2nc(N[C@H]3CCN(C4CC4)C[C@H]3F)c(C)c(-c3c(C)noc3C)n2)c1` [Example 43-3]: less than 5 µM.
